Columns and labels:
Assay in all cases: HDAC Enzymatic Assay
Conditions in all cases: pH 7.4
Histone deacetylase 1 = Histone deacetylase 1 (Homo sapiens, UniProt Q13547)
Method: (§1) Briefly, this fluorogenic assays uses an acetylated lysine tripeptide substrate, amide-linked to a fluorescently quenched aminocoumarin (AMC). Enzyme reactions were run in 50 mM HEPES, 100 mM KCl, 0.001% (v/v) Tween-20, 0.05% (w/v) BSA, pH 7.4. The appropriate substrate concentration for each HDAC was determined using their corresponding Km values. Km values were determined by monitoring the increase of fluorescence of each HDAC at varying substrate concentrations. The increase in fluorescence units was plotted versus substrate concentration. Assays corresponding to HDACs 4, 5, 7, 8, 9 involved a trifluoroacetylated lysine substrate as described in Bradner et al, while HDACs 1, 2, 3, and 6 used an acetyl-Leu-Gly-acetyl-Lys tripeptide as the substrate. Reactions were carriedout in 384-well plates and fluorescence was measured using a multi-label plate reader and plate stacker (Envision, Perkin-Elmer).

Histone deacetylase 2 = Histone deacetylase 2 (Homo sapiens, UniProt Q92769)
Chain of Histone deacetylase 2 (Q92769 whole entry): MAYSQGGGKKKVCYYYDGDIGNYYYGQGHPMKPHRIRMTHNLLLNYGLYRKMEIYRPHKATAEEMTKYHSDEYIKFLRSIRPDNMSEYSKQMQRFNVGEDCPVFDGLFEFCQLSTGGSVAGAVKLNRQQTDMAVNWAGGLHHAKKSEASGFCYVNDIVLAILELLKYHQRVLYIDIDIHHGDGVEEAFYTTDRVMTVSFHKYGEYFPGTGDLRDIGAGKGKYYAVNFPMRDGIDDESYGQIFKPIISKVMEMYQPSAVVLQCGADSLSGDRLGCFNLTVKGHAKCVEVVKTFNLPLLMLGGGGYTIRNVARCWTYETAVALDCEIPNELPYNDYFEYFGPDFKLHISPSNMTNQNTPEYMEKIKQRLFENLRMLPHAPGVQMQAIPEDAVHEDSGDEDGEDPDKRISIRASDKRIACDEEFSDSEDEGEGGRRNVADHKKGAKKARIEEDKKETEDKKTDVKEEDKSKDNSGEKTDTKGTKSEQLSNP
Method: as §1

Histone deacetylase 3 = Histone deacetylase 3 (Homo sapiens, UniProt O15379)
Chain of Histone deacetylase 3 (O15379 whole entry): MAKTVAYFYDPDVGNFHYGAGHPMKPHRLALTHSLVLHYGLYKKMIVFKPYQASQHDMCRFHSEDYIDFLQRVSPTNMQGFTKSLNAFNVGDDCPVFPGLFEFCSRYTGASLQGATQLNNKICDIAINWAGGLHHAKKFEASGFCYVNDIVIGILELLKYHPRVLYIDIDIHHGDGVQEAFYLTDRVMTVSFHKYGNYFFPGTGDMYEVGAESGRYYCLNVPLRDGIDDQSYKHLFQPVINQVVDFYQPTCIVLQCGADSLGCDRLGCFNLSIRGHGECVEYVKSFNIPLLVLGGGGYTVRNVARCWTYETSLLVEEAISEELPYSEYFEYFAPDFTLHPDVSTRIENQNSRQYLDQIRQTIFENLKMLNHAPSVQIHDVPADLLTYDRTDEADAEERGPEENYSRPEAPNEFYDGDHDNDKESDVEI
Method: as §1

Histone deacetylase 4 = Histone deacetylase 4 (Homo sapiens, UniProt P56524)
Chain of Histone deacetylase 4 (P56524 whole entry): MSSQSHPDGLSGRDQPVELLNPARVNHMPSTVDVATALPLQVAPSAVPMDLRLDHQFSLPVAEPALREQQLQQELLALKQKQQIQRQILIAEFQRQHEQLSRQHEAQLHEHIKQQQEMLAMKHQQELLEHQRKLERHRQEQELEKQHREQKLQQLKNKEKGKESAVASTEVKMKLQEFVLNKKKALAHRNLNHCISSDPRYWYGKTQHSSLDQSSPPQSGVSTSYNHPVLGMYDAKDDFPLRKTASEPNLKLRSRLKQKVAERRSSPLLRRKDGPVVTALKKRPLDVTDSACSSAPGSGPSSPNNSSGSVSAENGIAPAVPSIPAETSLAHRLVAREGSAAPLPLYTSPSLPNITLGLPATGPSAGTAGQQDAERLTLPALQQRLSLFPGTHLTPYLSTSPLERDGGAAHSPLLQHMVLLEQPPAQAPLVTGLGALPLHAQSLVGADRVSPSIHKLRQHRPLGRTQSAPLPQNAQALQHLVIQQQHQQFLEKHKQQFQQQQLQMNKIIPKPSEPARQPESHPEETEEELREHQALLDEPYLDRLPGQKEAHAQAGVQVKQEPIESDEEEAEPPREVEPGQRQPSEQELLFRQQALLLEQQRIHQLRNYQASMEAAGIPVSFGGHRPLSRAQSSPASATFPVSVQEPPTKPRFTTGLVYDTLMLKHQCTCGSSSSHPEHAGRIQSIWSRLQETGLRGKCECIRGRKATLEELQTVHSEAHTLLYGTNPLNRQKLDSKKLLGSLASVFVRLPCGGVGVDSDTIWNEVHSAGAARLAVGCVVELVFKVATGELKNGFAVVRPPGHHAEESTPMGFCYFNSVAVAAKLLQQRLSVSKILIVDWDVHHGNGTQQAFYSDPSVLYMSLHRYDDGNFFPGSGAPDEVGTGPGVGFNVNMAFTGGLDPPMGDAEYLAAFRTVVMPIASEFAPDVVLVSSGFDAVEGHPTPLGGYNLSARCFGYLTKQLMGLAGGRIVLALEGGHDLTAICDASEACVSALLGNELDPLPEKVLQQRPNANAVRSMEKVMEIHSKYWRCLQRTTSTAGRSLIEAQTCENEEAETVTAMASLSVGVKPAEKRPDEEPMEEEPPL
Method: as §1

Histone deacetylase 5 = Histone deacetylase 5 (Homo sapiens, UniProt Q9UQL6)
Chain of Histone deacetylase 5 (Q9UQL6 whole entry): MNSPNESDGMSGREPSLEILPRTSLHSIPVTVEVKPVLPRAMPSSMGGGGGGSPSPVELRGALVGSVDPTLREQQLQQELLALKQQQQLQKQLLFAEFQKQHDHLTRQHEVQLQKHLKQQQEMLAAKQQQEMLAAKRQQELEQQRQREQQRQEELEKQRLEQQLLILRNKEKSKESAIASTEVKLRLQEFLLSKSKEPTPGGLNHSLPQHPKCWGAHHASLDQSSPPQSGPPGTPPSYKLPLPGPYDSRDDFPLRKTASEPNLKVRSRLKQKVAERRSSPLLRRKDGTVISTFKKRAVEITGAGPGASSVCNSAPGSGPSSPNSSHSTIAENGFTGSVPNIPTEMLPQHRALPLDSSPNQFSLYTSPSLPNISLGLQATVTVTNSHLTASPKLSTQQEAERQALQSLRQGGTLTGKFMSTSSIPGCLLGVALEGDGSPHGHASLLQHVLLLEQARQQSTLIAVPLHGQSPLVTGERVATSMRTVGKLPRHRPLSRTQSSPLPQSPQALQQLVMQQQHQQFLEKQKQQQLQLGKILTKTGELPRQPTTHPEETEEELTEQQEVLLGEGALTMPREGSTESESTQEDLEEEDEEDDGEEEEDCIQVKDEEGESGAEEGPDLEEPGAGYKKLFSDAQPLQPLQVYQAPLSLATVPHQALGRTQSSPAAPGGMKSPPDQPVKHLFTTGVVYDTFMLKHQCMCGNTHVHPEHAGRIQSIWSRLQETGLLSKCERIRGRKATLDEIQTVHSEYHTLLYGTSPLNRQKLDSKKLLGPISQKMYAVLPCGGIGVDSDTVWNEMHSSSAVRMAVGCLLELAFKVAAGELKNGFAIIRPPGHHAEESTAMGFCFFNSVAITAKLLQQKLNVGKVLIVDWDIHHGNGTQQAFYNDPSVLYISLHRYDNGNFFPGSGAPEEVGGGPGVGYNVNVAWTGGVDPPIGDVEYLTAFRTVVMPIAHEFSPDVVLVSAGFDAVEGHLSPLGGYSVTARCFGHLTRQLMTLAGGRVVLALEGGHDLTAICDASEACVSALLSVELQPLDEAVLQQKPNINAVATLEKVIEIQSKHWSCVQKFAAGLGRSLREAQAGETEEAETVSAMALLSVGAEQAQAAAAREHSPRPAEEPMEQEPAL
Method: as §1

Histone deacetylase 7 = biological target: T1, Histone deacetylase 7 (Homo sapiens, UniProt Q8WUI4)
T1 sequence (Q8WUI4 whole entry): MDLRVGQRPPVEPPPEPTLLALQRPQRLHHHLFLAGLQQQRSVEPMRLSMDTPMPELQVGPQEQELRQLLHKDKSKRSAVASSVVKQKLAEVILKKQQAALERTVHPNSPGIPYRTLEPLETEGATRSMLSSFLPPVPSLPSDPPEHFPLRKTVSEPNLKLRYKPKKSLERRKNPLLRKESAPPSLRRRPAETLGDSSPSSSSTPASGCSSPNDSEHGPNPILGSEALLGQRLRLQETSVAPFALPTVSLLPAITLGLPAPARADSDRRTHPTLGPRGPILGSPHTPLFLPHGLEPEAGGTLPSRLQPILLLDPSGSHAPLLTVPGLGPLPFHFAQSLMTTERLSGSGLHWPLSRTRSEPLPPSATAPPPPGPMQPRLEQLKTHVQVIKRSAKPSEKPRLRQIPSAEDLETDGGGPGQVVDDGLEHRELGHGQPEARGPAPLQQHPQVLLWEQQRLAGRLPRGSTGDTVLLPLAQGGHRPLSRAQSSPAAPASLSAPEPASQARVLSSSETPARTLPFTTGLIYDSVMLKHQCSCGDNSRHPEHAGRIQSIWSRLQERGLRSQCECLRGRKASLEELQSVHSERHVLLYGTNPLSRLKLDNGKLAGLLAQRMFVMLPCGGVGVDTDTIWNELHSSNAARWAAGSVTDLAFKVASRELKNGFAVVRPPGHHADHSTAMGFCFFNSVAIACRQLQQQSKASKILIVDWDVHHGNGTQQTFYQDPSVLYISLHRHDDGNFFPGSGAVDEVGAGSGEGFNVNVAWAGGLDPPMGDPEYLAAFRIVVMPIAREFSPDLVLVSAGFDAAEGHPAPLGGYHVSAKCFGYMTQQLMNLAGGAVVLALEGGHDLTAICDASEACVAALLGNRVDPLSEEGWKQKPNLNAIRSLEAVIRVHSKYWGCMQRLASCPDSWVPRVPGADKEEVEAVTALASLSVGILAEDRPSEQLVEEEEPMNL
Method: as §1

[1] = biological target: Histone deacetylase 8 [R223M] (Homo sapiens, UniProt Q9BY41, R223M)
Chain of Histone deacetylase 8 [R223M] (Q9BY41 whole entry R223W): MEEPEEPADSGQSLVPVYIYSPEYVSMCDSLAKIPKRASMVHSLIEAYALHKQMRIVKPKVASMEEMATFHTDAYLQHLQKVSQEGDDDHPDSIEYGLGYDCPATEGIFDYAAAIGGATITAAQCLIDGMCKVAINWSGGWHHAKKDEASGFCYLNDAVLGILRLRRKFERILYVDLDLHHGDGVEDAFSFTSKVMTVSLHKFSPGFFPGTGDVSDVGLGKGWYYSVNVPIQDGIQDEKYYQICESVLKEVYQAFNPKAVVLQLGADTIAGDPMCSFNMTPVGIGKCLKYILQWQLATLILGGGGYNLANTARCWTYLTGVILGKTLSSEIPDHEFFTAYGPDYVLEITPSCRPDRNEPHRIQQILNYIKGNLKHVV
Method: as §1

Histone deacetylase 9 = Histone deacetylase 9 (Homo sapiens, UniProt Q9UKV0)
Chain of Histone deacetylase 9 (Q9UKV0 whole entry): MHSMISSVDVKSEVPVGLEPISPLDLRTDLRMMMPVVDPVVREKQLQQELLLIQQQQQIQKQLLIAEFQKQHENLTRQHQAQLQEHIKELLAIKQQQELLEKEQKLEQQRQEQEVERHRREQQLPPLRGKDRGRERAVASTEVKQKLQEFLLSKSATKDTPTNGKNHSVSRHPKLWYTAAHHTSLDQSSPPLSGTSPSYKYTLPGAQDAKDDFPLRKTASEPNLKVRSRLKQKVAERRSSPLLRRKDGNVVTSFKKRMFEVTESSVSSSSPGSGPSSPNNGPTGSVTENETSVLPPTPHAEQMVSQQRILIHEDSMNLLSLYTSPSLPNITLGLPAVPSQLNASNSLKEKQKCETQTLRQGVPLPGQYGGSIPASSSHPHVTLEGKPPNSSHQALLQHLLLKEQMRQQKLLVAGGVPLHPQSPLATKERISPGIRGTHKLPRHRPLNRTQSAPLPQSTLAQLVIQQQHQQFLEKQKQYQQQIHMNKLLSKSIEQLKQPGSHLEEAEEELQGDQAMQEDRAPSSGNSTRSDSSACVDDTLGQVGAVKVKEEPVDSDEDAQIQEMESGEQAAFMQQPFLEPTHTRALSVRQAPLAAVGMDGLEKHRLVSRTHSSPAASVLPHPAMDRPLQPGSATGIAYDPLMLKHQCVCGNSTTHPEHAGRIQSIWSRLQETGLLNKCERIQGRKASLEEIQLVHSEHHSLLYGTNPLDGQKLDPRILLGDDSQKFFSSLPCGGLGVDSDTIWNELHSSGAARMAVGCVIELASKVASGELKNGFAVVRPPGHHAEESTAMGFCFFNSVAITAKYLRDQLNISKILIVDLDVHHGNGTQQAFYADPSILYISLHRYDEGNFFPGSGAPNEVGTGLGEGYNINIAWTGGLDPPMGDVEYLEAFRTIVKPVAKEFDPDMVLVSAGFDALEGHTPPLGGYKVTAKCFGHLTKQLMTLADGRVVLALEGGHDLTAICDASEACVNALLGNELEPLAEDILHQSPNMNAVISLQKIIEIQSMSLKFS
Method: as §1

Chain of Histone deacetylase 1 (Q13547 whole entry): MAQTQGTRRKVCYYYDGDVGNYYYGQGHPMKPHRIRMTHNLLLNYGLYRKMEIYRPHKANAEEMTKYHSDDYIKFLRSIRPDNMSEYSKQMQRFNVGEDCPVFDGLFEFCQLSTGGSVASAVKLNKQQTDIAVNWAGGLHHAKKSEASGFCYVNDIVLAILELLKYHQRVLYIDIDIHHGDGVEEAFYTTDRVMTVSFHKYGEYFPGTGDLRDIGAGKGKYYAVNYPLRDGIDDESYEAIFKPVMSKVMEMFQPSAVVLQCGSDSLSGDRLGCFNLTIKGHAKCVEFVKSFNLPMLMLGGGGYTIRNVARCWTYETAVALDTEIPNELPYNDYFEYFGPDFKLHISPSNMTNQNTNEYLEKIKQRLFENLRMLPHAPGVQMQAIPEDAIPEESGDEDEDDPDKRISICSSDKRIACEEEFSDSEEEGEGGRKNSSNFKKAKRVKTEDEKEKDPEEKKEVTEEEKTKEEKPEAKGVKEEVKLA

IC50 (Histone deacetylase 1): 40.4 µM | IC50 (Histone deacetylase 2): 67.2 µM | IC50 (Histone deacetylase 3): 65.1 µM | IC50 (Histone deacetylase 4): 13.8 µM | IC50 (Histone deacetylase 5): 0.85 µM | IC50 (Histone deacetylase 7): 8.44 µM | IC50 [1]: 3.89 µM | IC50 (Histone deacetylase 9): 1.88 µM
SMILES: CCN1CCN(C(c2cccnc2)c2cc(Cl)c3cccnc3c2O)CC1 (stereo not drawn) [5-chloranyl-7-[(4-ethylpiperazin-1-yl)-pyridin-3-yl-methyl]quinolin-8-ol]

From BindingDB's records for doi:10.1021/acschembio.6b00012 (Broad Institute, 2016)
